Measured values taken from PMC3769651 (Scientific Reports, 2013).

Target: vchNADK (Vibrio cholerae, UniProt Q9KTP8, K2E/N76T)

## NC(=O)c1ccc[n+]([C@@H]2O[C@H](COP(=O)(O)OP(=O)(O)OC[C@H]3O[C@@H](n4cnc5c(N)ncnc54)[C@H](OP(=O)(O)O)[C@@H]3O)[C@@H](O)[C@H]2O)c1 [NADP^+]
  % residual activity at 0.20 mM: 39%
